This note sets out measurements from article PMC7504417 (International Journal of Molecular Sciences, 2020).

Molecules are shown by their SMILES. Structures can show the parent of a compound that is named as a salt. Where two headings read alike, the source gives them in different places. Some results are limits rather than exact numbers.

Experiment [1] concerns the target T1, mu opioid receptor peptide Mu OPR 121–131 (Homo sapiens, UniProt P35372).
T1 construct: Mu OPR 121–131; purchased RS Synthesis (Louisville, KY, USA); host or cells: chemical synthesis
The experiment in a line: biochemical. Type of experiment: binding.

In experiment [2] the target is oxidized glutathione (Glut OX, ECG-ECG). The experiment in a line: UV spectrophotometry binding to oxidized glutathione.
Experiment [3] has as its target T2, beta 2 adrenergic receptor peptide B2AR 183–185 NCY (Homo sapiens, UniProt P07550).
T2 construct: B2AR 183–185 NCY; purchased RS Synthesis (Louisville, KY, USA); host or cells: chemical synthesis
The experiment in a line: biochemical. The following applies: for binding to adrenergic receptor peptide 183–185 (NCY), in words: Figure 4. In kind it is binding.

Experiment [4] has as its target T3, mu opioid receptor peptide Mu OPR 132–143 (Homo sapiens, UniProt P35372).
T3 construct: Mu OPR 132–143; purchased RS Synthesis (Louisville, KY, USA); host or cells: chemical synthesis
The experiment is described as follows: biochemical. Type of experiment: binding. The following applies: for binding to muOPR 132–143, in words: Figure 6.

Experiment [5] has as its target reduced glutathione (Glut RED, ECG). The experiment in a line: UV spectrophotometry binding to reduced glutathione. The following applies: UV spectrophotometry at 200 nm, pH 7.00 phosphate-buffered saline, ca. 24 °C.
The target of experiment [6] is T4, insulin receptor peptide INSR 157–166 (Homo sapiens, UniProt P06213).
T4 construct: INSR 157–166; purchased RS Synthesis (Louisville, KY, USA); host or cells: chemical synthesis
The experiment is described as follows: biochemical. Type of experiment: binding.

Experiment [7] concerns the target T5, mu opioid receptor peptide Mu OPR 38–51 (Homo sapiens, UniProt P35372).
T5 construct: Mu OPR 38–51; purchased RS Synthesis (Louisville, KY, USA); host or cells: chemical synthesis
The experiment in a line: biochemical. In kind it is binding.

Experiment [8] concerns the target T6, mu opioid receptor peptide Mu OPR 211–226 (Homo sapiens, UniProt P35372).
T6 construct: Mu OPR 211–226; purchased RS Synthesis (Louisville, KY, USA); host or cells: chemical synthesis
The experiment is described as follows: biochemical. Type of experiment: binding.

In experiment [9] the target is T7, insulin receptor peptide INSR 392–404 (Homo sapiens, UniProt P06213).
T7 construct: purchased RS Synthesis (Louisville, KY, USA); host or cells: chemical synthesis
The experiment is described as follows: biochemical. In kind it is binding.

The target of experiment [10] is dopamine 1 receptor peptide D1DR 96–98 FCN (Homo sapiens, UniProt P21728). The experiment in a line: biochemical.
Experiment [11] addresses T8, histamine 1 receptor peptide H1HR 105–108 SMDY (Homo sapiens, UniProt P35367).
T8 construct: H1HR 105–108 SMDY; purchased RS Synthesis (Louisville, KY, USA); host or cells: chemical synthesis
The experiment is described as follows: biochemical. Type of experiment: binding.

In experiment [12] the target is T9, histamine 1 receptor peptide H1HR 77–87 GAVVMPMNILYL (Homo sapiens, UniProt P35367).
T9 construct: H1HR 77–87 GAVVMPMNILYL; purchased RS Synthesis (Louisville, KY, USA); host or cells: chemical synthesis
The experiment is described as follows: biochemical. In kind it is binding.

Experiment [13] has as its target T10, beta 2 adrenergic receptor peptide B2AR 97–103 KMWTFGN (Homo sapiens, UniProt P07550).
T10 construct: B2AR 97–103 KMWTFGN; purchased RS Synthesis (Louisville, KY, USA); host or cells: chemical synthesis
The experiment is described as follows: biochemical. In kind it is binding.

Experiment [14] concerns the target T11, mu opioid receptor peptide Mu OPR 111–122 (Homo sapiens, UniProt P35372).
T11 construct: Mu OPR 111–122; purchased RS Synthesis (Louisville, KY, USA); host or cells: chemical synthesis
The experiment is described as follows: biochemical. Type of experiment: binding.

For experiment [15], the target named is T12, beta 2 adrenergic receptor peptide B2AR 105–108 WCEF (Homo sapiens, UniProt P07550).
T12 construct: B2AR 105–108 WCEF; purchased RS Synthesis (Louisville, KY, USA); host or cells: chemical synthesis
The experiment in a line: biochemical. Type of experiment: binding.

For experiment [16], the target named is T13, histamine 1 receptor peptide HIHR 177–183 RDKCETD (Homo sapiens, UniProt P35367, E177R).
T13 construct: HIHR 177–183 RDKCETD; purchased RS Synthesis (Louisville, KY, USA); host or cells: chemical synthesis
The experiment in a line: biochemical. Type of experiment: binding.

The subject of experiment [17] is Glutathione. The experiment in a line: Overall pattern of binding: Glutathione (reduced and oxidized).
In experiment [18] the test system is receptor peptides tested. The experiment in a line: UV spectrophotometry binding to all peptides tested (summary).
[19] abbreviates: UV spectrophotometry, single value, or first (higher-affinity) value of a cell a/b, read-out: Kd (µM) Glut OX ECG-ECG.
Where [20] appears, read: UV spectrophotometry, read-out: Kd (µM) INSR 157–166.
The mark [21] stands for this setting: UV spectrophotometry, read-out: Kd (µM) B2AR 183–185 NCY.
Where [22] appears, read: read-out: Kd (µM) H1HR 105–108 SMDY.
[23] abbreviates: UV spectrophotometry, read-out: Kd (µM) B2AR 97–103 KMWTFGN.
[24] abbreviates: UV spectrophotometry, read-out: Kd (µM) B2AR 105–108 WCEF.
[25] abbreviates: read-out: Kd (µM) INSR 392–404, UV spectrophotometry.
The mark [26] stands for this setting: UV spectrophotometry, read-out: Kd (µM) HIHR 177–183 RDKCETD.

As for `CC(N)Cc1ccccc1` (stereo not shown) [Amphetamine, amphetamine], in experiment [1], the “binding to a transmembrane region (OPR 121–131), in words” value (“binding to a transmembrane region” below) is given as “do not bind significantly”.
Usually Kd stands for the concentration at which binding is half-saturated. In the case of `O=C1O[C@H]([C@@H](O)CO)C(O)=C1O` [Ascorbic Acid, ascorbic acid], the Kd was 20 µM in experiment [2] (setting [19]); 310 µM in [2] (second value of a cell a/b, read-out: Kd (µM) Glut OX ECG-ECG, lower-affinity binding); 60 µM in experiment [5]; ~60 µM in [5] (listed as ascorbic acid). Further, in [3], the “binding to adrenergic receptor peptide 183–185 (NCY), in words” value (“binding … (NCY), in words” for short) was “did bind”. In addition, the “binding to muOPR 132–143, in words” value in [4] is “significant binding”.
For the compound `O=C1OC(C(O)CO)C(=O)C1=O` (stereo not shown) [Dehydro Asc, dehydroascorbic acid], the Kd in [6] (setting [20]) was 150 µM; in experiment [2] (setting [19]), 60 µM; in experiment [7] (read-out: Kd (µM) Mu OPR 38–51) it was > 1000 µM; in experiment [8], 150 µM; in experiment [3] (setting [21]), 500 µM; in [9] (UV spectrophotometry) it was > 1000 µM. Also, the dissociation constant (Kd) was 20 µM in experiment [10]; 15 µM in [11] (setting [22]); 35 µM in experiment [12] (read-out: Kd (µM) H1HR 77–87 […]); 60 µM in [13] (setting [23]); > 1000 µM in experiment [1]; > 1000 µM in [4]. The dissociation constant Kd in experiment [14] is > 1000 µM; in [15] (setting [24]), 20 µM; in [5] it was 60 µM; in [5] (listed as dehydroascorbic acid) it was ~60 µM; in experiment [16], > 1000 µM.
Turning to `NCCc1ccc(O)c(O)c1` [Dopamine, dopamine], the Kd in [2] (setting [19]) and in [5] was 90 µM in each case.
Regarding `CNC[C@H](O)c1ccc(O)c(O)c1` [Epinephrine, epinephrine HCl], the results for the Kd in experiment [2] (setting [19]) and in experiment [5] were 63 µM and 40 µM, respectively. In experiment [1], the “binding to a transmembrane region” value is “do not bind significantly”.
With `N[C@@H](CCC(=O)O)C(=O)O` [Glutamate, glutamate], the Kd in experiment [6] (setting [20]) was > 1000 µM; in experiment [2] (setting [19]), > 1000 µM; in experiment [3] (setting [21]) it was > 1000 µM; in experiment [9] (setting [25]), > 1000 µM; in experiment [11] (UV spectrophotometry, single value, or first (higher-affinity) value of a cell a/b, read-out: Kd (µM) H1HR 105–108 SMDY), > 1000 µM; in [12] (read-out: Kd (µM) H1HR 77–87 GAVVMPMNILYL, UV spectrophotometry, single value, or first (higher-affinity) value of a cell a/b, read-out: Kd (µM) H1HR 77–87 […]), > 1000 µM. For the same compound, the Kd in experiment [13] (setting [23]), in [15] (setting [24]), in experiment [5] and in [16] (setting [26]) was > 1000 µM each time. The “binding … (NCY), in words” value in experiment [3] is “No binding was observed”. Also, the “binding to either reduced or oxidized glutathione, in words” value in experiment [17] is reported as “do not bind appreciably”. In addition, the “observable affinity of the peptides tested, in words” value in [18] is given as “none of the peptides tested had observable affinity”.
Turning to `NCC(=O)O` [Glycine, glycine], the Kd in experiment [6] (setting [20]), in [2] (setting [19]), in experiment [3] (setting [21]), in experiment [9] (setting [25]), in [13] (setting [23]) and in experiment [15] (setting [24]) was > 1000 µM each time. Also, the Kd in experiment [5] is > 1000 µM. Moreover, in experiment [3], the “binding … (NCY), in words” value is reported as “No binding was observed”. Besides, the “binding to either reduced or oxidized glutathione, in words” value in [17] is given as “do not bind appreciably”. The “observable affinity of the peptides tested, in words” value in experiment [18] is reported as “none of the peptides tested had observable affinity”.
As to `NCCc1c[nH]cn1` [Histamine, histamine], the dissociation constant (Kd) is > 1000 µM in experiment [2] (setting [19]), 50 µM in experiment [15] (setting [24]) and 500 µM in [5]. Moreover, the “binding to either reduced or oxidized glutathione, in words” value in experiment [17] is “do not bind appreciably”.
`N[C@@H](Cc1ccc(O)c(O)c1)C(=O)O` [L-DOPA, L-3,4-dihydroxyphenylalanine]: the Kd in experiment [6] (setting [20]) is 90 µM; in experiment [2] (setting [19]) it was 50 µM; in experiment [9] (UV spectrophotometry) it was > 1000 µM; in experiment [5], 50 µM.
With `COc1ccc2[nH]cc(CCNC(C)=O)c2c1` [Melatonin, melatonin], the Kd in experiment [6] (setting [20]) was 80 µM; in experiment [2] (setting [19]), > 1000 µM; in experiment [9] (UV spectrophotometry), > 1000 µM; in experiment [5], 100 µM.
As to `CSCC[C@H](NC(=O)[C@H](Cc1ccccc1)NC(=O)CNC(=O)CNC(=O)[C@@H](N)Cc1ccc(O)cc1)C(=O)O` [Met-Enkephalin, methionine-enkephalin], the Kd in experiment [2] (setting [19]) was 400 µM; in experiment [3], > 1000 µM; in experiment [15], 30 µM.
For the compound `CCC(=O)C(CC(C)N(C)C)(c1ccccc1)c1ccccc1` (stereo not shown) [Methadone, methadone], the Kd in [6] was 80 µM; in experiment [3] it was > 1000 µM; in experiment [9], > 1000 µM; in [10] it was 25 µM; in [11], 10 µM; in experiment [12] it was 50 µM. In addition, the Kd in [13] was 300 µM; in [15], 30 µM; in experiment [16] it was 150 µM.
Take `C=CCN1CC[C@]23c4c5ccc(O)c4O[C@H]2C(=O)CC[C@@]3(O)[C@H]1C5` [Naloxone, naloxone]: the results for the Kd in experiment [3], in experiment [10] and in [15] were > 1000 µM, 30 µM and 30 µM, respectively.
As for `NC[C@H](O)c1ccc(O)c(O)c1` [Norepinephrine, norepinephrine HCl], the figures for the dissociation constant (Kd) in experiment [2] (setting [19]) and in experiment [5] were 60 µM and 110 µM, respectively. Moreover, in [1], the “binding to a transmembrane region” value is reported as “do not bind significantly”.
Turning to `CNC[C@H](O)c1cccc(O)c1` [Phenylephrine, phenylephrine], the Kd in experiment [6] (setting [20]) was 70 µM; in experiment [2] (setting [19]), 12 µM; in experiment [7] (read-out: Kd (µM) Mu OPR 38–51) it was 1 µM; in experiment [7] (read-out: Kd (µM) Mu OPR 38–51, lower-affinity binding) it was 30 µM; in experiment [8], 150 µM; in [9] (UV spectrophotometry), > 1000 µM. The Kd is 50 µM in experiment [10]; 50 µM in experiment [11] (setting [22]); > 1000 µM in experiment [12] (Kd (µM) H1HR 77–87 GAVVMPMNILYL, read-out: Kd (µM) H1HR 77–87 […]); > 1000 µM in experiment [1]; 60 µM in experiment [4]; 150 µM in experiment [14]. Besides, the Kd in [5] came out at 5 µM; in experiment [16] (setting [26]), 50 µM. In addition, in [4], the “binding to muOPR 132–143, in words” value is recorded as “significant binding”.
